Work on `N#Cc1ccc(-c2nc(-c3ccc(F)cc3)c(-c3ccncc3)[nH]2)cc1` yielded a melting point of 268 to 269 °C.
Work on `Cc1nc(Cl)c2nnn(-c3ccc(C(C)C)cc3Br)c2n1` yielded a melting point of 72 to 74 °C.
Work on `Nc1nc2ccccc2c2c1nc(CCCOc1ccccc1)n2CCCNC(=O)N1CCOCC1` yielded a melting point of 199 to 200 °C.
`CC1(C)CC(=O)c2c(C(=O)Nc3ccsc3)c[nH]c2C1` gave a melting point of 217 to 218 °C.
In the case of `COc1ccc2c(=O)cc(-c3ccc(F)cc3)oc2c1`, the melting point is reported as 162 °C.
In the case of `CCOC(=O)Cn1c2cccccc-2c(C#N)c1=O`, the melting point is reported as 149 to 151 °C.
`O=C(NCC(O)c1cccc(OCc2ccc3ccccc3n2)c1)c1ccccn1` (stereo not given) showed a melting point of 126 to 129 °C.
In the case of `OC1COC(n2c(Cl)nc3cc(Cl)c(Cl)cc32)C(O)C1O` (stereo not given), the melting point is reported as 184 °C.
Molecule `CNc1ccc(CO)cc1[N+](=O)[O-]` has a melting point of 126 to 127 °C.
In the case of `Nc1nc2ccccc2c2c1nc(-c1ccccc1)n2CCCCNC(=S)Nc1cccnc1`, the melting point is reported as 118 to 120 °C.
`Cc1ccc(Br)cc1NC(=O)NCCCNCCCCl` gave a melting point of 145 to 148 °C.
With `CC(C)C(=O)OC1C(CO)OC(n2cnc3c(N)ncnc32)C1OC(=O)C(C)C` (stereo not given) the melting point was 207 to 208 °C.
With `CCOCc1nc2c(N)nc3cc(-c4cccnc4)ccc3c2n1CCNC(=O)NC(C)C` the melting point was 194 to 196 °C.
`CCn1ccc(-c2ccc(C(=O)N3Cc4cccn4Cc4ccccc43)cc2)n1` gave a melting point of 180 to 183 °C.
Work on `CSC(=S)C1(c2ccncc2)CCCS1` (stereo not given) yielded a melting point of 64 °C.
`O=C(O)CCCc1ccc(-c2ccc(F)cc2Cl)cc1` showed a melting point of 81 to 82 °C.
Molecule `CN(C)c1nc(N)nc(-c2cc(Cl)ccc2Cl)n1` has a melting point of 178 to 179 °C.
With `COc1ccc(S(=O)(=O)N(CCC(F)(F)C(F)F)c2ccccc2/C=C/c2ccncc2)cc1` the melting point was 124 to 126 °C.
With `COc1ccc(C(=O)Nc2ccc3ccc(Oc4ccccc4C)nc3n2)cc1` the melting point was 153 °C.
`Cc1ncc2c(c1O)COC2(C)C` showed a melting point of 247 °C.
In the case of `O=[N+]([O-])c1ccc(C(Cl)Cl)cc1`, the melting point is reported as 44 to 46 °C.
With `CSc1ccc(C(=O)C(C#N)C(=O)C(C)(C)C)c(Cl)c1` (stereo not given) the melting point was 97 to 99 °C.
`Cn1c(C(N)=O)c(-c2ccc(NC(=O)Nc3cc(C(F)(F)F)ccc3F)cc2)c2ccccc21` showed a melting point of over 260 °C.
With `O=[N+]([O-])c1cc(C(F)(F)F)ccc1C(Br)c1cnoc1C1CC1` (stereo not given) the melting point was 146 °C.
Work on `O=C(Cn1c(=O)n(S(=O)(=O)c2ccc(Cl)cc2)c(=O)c2ccc(Cl)cc21)Nc1ccc(C(=O)O)cc1` yielded a melting point of 219 to 221 °C.
With `COc1ccc(-c2cnc3ccc(-c4nnc(SCc5cccc(C(F)(F)F)c5)o4)cn23)cc1` the melting point was 104 to 105 °C.
Work on `CON=CNC(=O)c1ccc(Br)cc1C` yielded a melting point of 119 to 122 °C.
In the case of `COc1cccc2c1C(NC(C)=O)=NS2(=O)=O`, the melting point is reported as 242 to 245 °C.
For `Cc1cccc(C(=O)NO)c1N(C)S(=O)(=O)c1ccc(OCCCNC(=O)c2cc3ccccc3o2)cc1`, the melting point was 148 to 150 °C.
With `CCOCc1nc(N)c(N=O)c(=O)[nH]1` the melting point was 163 to 165 °C.
Work on `O=C(O)c1ccc(Cl)c2c1CCNCC2` yielded a melting point of 144 to 149 °C.
`CC(=O)Nc1cc(Cn2c(C(=O)c3cc(C)cc(Cl)c3)c(C(C)C)c(=O)[nH]c2=O)ccn1` gave a melting point of 241 to 243 °C.
In the case of `Cc1c(C)c2c(c(C)c1NC(=O)OC(C)(C)C)C(c1ccc(C(C)C)cc1)CO2` (stereo not given), the melting point is reported as 121 to 122 °C.
In the case of `O=C(O)C(=O)c1ccc(F)c(Br)c1`, the melting point is reported as 68 to 73 °C.
With `N#CC(C#N)=C1N(CCN2CCCCC2)c2ccccc2N1CCN1CCCCC1` the melting point was 127 to 128 °C.
`O=[PH](c1ccc2c(c1)OCO2)c1ccc2c(c1)OCO2` gave a melting point of 128 °C.
In the case of `Cc1cc(=O)c(OCc2ccccc2)c(C(=O)NC2CCCCC2)o1`, the melting point is reported as 118 to 120 °C.
`CC(O)(c1nc2ccc(I)cc2c(=O)[nH]1)C(F)(F)F` (stereo not given) gave a melting point of 205 to 207 °C.
`O=C(Cn1c(-c2ccc(F)cc2)nc2cccnc21)OCCO` gave a melting point of 166 to 168 °C.
`CC1(C2CCCC2)Cc2cc(OCC(=O)O)c(Cl)c(Cl)c2C1=O` (stereo not given) gave a melting point of 113 to 114 °C.
`CCOC(=O)c1cc2c(C)noc2nc1C(=O)OCC` showed a melting point of 95 to 99 °C.
With `Cc1ccc(S(=O)(=O)Nc2cccc3cc(C(=O)O)[nH]c23)cc1` the melting point was 268 to 269 °C.
`Cc1ccccc1N1CCN(S(=O)(=O)CC23CCC(CC2=O)C3(C)C)CC1` (stereo not given) showed a melting point of 112 to 114 °C.
For `Nc1cc(OCc2cccc(Cl)c2)c(C(=O)NC2CN3CCC2CC3)cc1Cl` (stereo not given), the melting point was 168 to 169 °C.
For `C[C@@H](n1cnc2cccc(F)c2c1=O)[C@](O)(Cn1cncn1)c1ccc(F)cc1F`, the melting point was 94 to 122 °C.
Molecule `CCOC(=O)Nc1cc(=O)c2cc(Oc3ccccc3)c(NS(C)(=O)=O)cc2o1` has a melting point of 207 to 209 °C.
In the case of `CCCCCCCCCCCCCCCCN(CCCC)CCCCCCO`, the melting point is reported as 58 to 59 °C.
Work on `COc1ccc(C)cc1NC(=O)Nc1ccc(C2=CCN(C(=O)Nc3ccc(OCC(O)CO)cc3Cl)CC2)cc1` (stereo not given) yielded a melting point of 125 to 128 °C.
For `ON=Cc1cc(OCC(F)(F)F)ccc1OCc1ccccc1`, the melting point was 93 to 95 °C.
`O=C(Cc1ccccc1Nc1c(Cl)cccc1Cl)OCCOCCOCCO[N+](=O)[O-]` gave a melting point of 68 °C.
`COc1cc2nc(O)nc(O)c2c(OC)c1OC` showed a melting point of over 250 °C.
Work on `COc1ccc(N2CCN(c3c(C)c(C)c4c(c3C)C(O)(c3ccco3)C(C)(C)O4)CC2)cc1` (stereo not given) yielded a melting point of 111 to 112 °C.
With `CC(C)OC(=O)c1nsc2ccc(-n3c(=O)cc(C(F)(F)F)n(C)c3=O)cc12` the melting point was 94 to 97 °C.
Molecule `CCCCCCCCCCCCCCCCNc1ccc(C(=O)OCC2CO2)cc1` (stereo not given) has a melting point of 86 to 89 °C.
In the case of `O=C1N(Cc2c[nH]c3ccccc23)CCCC12CCN(c1cnc3ccccc3n1)CC2`, the melting point is reported as 109 to 111 °C.
In the case of `Cc1cc(C)cc(COC(=O)C(Cc2c[nH]c3ccccc23)NC(=O)c2ccccc2)c1` (stereo not given), the melting point is reported as 133 to 134 °C.
Molecule `CC(C)c1cc(O)cc(C(C)C)c1NC(=O)CN1CCN(CCSc2nc3ccccc3o2)CC1` has a melting point of 162 to 164 °C.
Molecule `Clc1ccc(C(Cl)c2cc3cc(Br)ccc3o2)cc1` (stereo not given) has a melting point of 83 to 85 °C.
`O=C(O)CCc1cn(Cc2cccc(C(=O)Nc3cccnc3)c2)nc1-c1ccccc1` showed a melting point of 131 to 132 °C.
Molecule `CCOC(=O)C1=C(N)NC(C)=CC1c1ccccc1Cl` (stereo not given) has a melting point of 171 °C.
Work on `CCCCC(=O)N(Cc1ccc2c(c1)c1ccccc1n2CCc1nnn[nH]1)C(C(=O)O)C(C)C` (stereo not given) yielded a melting point of 111 to 112 °C.
`Nc1sc2c(c1C(=O)c1ccc(Cl)cc1)CCN(C(=O)Nc1ccccc1)C2` gave a melting point of 216 to 217 °C.
`Nc1ncc(-c2ccccc2)nc1Sc1ccc(Cl)cc1` gave a melting point of 158 to 160 °C.
`CC(=O)Oc1ccc(C2COc3cc(OC(C)=O)c(OC(C)=O)cc3C2)cc1` (stereo not given) showed a melting point of 145 to 147 °C.
For `CC(C)N1CCN(S(=O)(=O)c2ccc(NC(=O)Nc3ccc(C(F)(F)F)cc3)cc2)CC1`, the melting point was 208 to 212 °C.
With `O=C1NC(=S)SC1=Cc1ccc(C(F)(F)F)o1` the melting point was 174 °C.
In the case of `Cc1cccc2ncc(-c3nnnn3C)c(=O)n12`, the melting point is reported as 232 to 234 °C.
In the case of `CS(=O)(=O)NCCn1c(CO)nc2c(N)nc3cccnc3c21`, the melting point is reported as 239 to 242 °C.
In the case of `Cc1cc(-c2cccc(C3=Nc4ccc(-n5cccc5)cc4NC(=O)C3)c2)ccn1`, the melting point is reported as 206 °C.
For `CCC(=O)N(C(=O)CC)c1cc(-c2c(-c3cccc(C)c3)nc3cccnn23)ccn1`, the melting point was 210 to 211 °C.
Work on `CCOc1cc(-n2c(=O)cc(C(F)(F)F)[nH]c2=O)c(F)cc1Br` yielded a melting point of 161 to 162 °C.
In the case of `CCOP(=O)(/C=C/c1cn(CCO)nc1OCc1ccc(OCc2nc(-c3ccco3)oc2C)c(OC)c1)OCC`, the melting point is reported as 95 to 96 °C.
Work on `Cc1nc2cc3c(nc2o1)C(=O)OC3=O` yielded a melting point of 194 to 196 °C.
Molecule `Nc1ccc(OCc2ccccc2)c2cnsc12` has a melting point of 126 to 128 °C.
`CC(C)(C)C1OC1C(O)C1CCCCC1` (stereo not given) gave a melting point of 38 to 48 °C.
`Cc1ccc(-c2[nH]c(-c3ccncc3)nc2C(=O)Nc2nccs2)cc1` gave a melting point of over 250 °C.
With `Cn1ccc(=O)c2cc(F)ccc21` the melting point was 88 to 89 °C.
`CC(=O)Nc1cc(Oc2ccc3c(c2)CCN3C(=O)Nc2ccc(OC(C)(C)C(=O)O)c(C(F)(F)F)c2)ncn1` gave a melting point of 219 to 220 °C.
In the case of `COCc1[nH]c(=O)c(C#N)c2c1CC(C)CC2` (stereo not given), the melting point is reported as 205 to 208 °C.
For `N#Cc1c(N)nc2ccccc2c1Nc1cccs1`, the melting point was 208 to 209 °C.
Molecule `C#CCOc1ccc(NCc2ccccc2)c(C(=O)c2ccc(C3CC3)cc2)c1` has a melting point of 116 to 118 °C.
Work on `CN(CCN1CCC(=C(c2ccccc2)c2ccccc2)CC1)c1ncccn1` yielded a melting point of 98 to 100 °C.
`COc1ccccc1N1CCN(C(=O)c2ccccc2C(c2ccc(O)cc2)c2ccc(O)cc2)CC1` showed a melting point of 229 to 231 °C.
`O=C(O)CCC(c1ccccc1)c1ccccc1F` (stereo not given) showed a melting point of 105 °C.
With `CCCCc1nc2sc3c(NCc4ccco4)ncnc3c2c2c1COC(C)(C)C2` the melting point was 66.1 to 68.5 °C.
Work on `COC(=O)CC/C(C)=C/Cc1c(NC(=O)N(C)C)c2c(c(C)c1OC)COC2=O` yielded a melting point of 116 to 118 °C.
In the case of `COc1ccc(N)cc1C12CC3CC(CC(C3)C1)C2`, the melting point is reported as 140 to 141 °C.
`O=C(O)c1ccccc1Oc1ccc(C(F)(F)F)cc1NS(=O)(=O)c1ccc(Cl)cc1` showed a melting point of 164 °C.
`O=CNc1ncc(C#Cc2ccc(Cl)cc2)c(Sc2ccc(O)cc2)n1` showed a melting point of 261 to 262 °C.
Work on `O=C(O)C(=O)Nc1cc(Cl)cc(NC(=O)C(=O)O)n1` yielded a melting point of over 320 °C.
For `COc1cccc2c1C13CCN(C(=O)OCC(Cl)(Cl)Cl)C(C2)C1(C(=O)OCC(Cl)(Cl)Cl)CCC(=O)C3` (stereo not given), the melting point was 115 to 116 °C.
With `CC(C)Nc1cccnc1N1CCN(C(=O)c2ccc(C(=O)NCCN(C)C)cc2)CC1` the melting point was 133 °C.
Molecule `N#Cc1ccc(-c2cnc(-c3ccc(C#N)cc3)nc2)cc1` has a melting point of 305 to 306 °C.
`Cc1ccc(-c2nc(C)c(C)c(Cl)n2)cc1` gave a melting point of 165 °C.
In the case of `O=C1NC(c2ccc(Cl)cc2)c2ccccc2C1CCN1CCOCC1` (stereo not given), the melting point is reported as 239 to 245 °C.
`COc1cc(COc2cc(/C=C/C(=O)O)n(-c3ccccc3)n2)ccc1OCc1nc(-c2ccccc2)oc1C` gave a melting point of 194 to 195 °C.
`COc1cc2c(cc1OC)CN(c1nc(N)c3cc(OC)c(OC)c(OC)c3n1)CC2` gave a melting point of 204 °C.
Work on `CCOC(=O)C1CCNC1=O` (stereo not given) yielded a melting point of 74.5 to 75.5 °C.
For `COc1ccc2c(ccn2S(=O)(=O)c2ccccc2)c1`, the melting point was 73 to 75 °C.
For `Cc1oc2c(NC(=O)c3c(Cl)cccc3Cl)cccc2c1CC1CCCCC1`, the melting point was 189 to 190 °C.

— a melting point compilation (Tetko et al.; mined from patent text by program, amines drawn as free bases though some values may be those of a salt)
